The source of these data is EP4722213A1, “NITROGEN-CONTAINING FUNCTIONAL GROUP-SUBSTITUTED PYRIDAZINOPYRIDONE DERIVATIVE AND USE THEREOF” (Sichuan Huiyu Pharmaceutical Co., Ltd., priority 2023, dated 2024).

This experiment addresses T1, SOS1 (Homo sapiens, UniProt Q07889).
T1 sequence (Q07889 1-1333): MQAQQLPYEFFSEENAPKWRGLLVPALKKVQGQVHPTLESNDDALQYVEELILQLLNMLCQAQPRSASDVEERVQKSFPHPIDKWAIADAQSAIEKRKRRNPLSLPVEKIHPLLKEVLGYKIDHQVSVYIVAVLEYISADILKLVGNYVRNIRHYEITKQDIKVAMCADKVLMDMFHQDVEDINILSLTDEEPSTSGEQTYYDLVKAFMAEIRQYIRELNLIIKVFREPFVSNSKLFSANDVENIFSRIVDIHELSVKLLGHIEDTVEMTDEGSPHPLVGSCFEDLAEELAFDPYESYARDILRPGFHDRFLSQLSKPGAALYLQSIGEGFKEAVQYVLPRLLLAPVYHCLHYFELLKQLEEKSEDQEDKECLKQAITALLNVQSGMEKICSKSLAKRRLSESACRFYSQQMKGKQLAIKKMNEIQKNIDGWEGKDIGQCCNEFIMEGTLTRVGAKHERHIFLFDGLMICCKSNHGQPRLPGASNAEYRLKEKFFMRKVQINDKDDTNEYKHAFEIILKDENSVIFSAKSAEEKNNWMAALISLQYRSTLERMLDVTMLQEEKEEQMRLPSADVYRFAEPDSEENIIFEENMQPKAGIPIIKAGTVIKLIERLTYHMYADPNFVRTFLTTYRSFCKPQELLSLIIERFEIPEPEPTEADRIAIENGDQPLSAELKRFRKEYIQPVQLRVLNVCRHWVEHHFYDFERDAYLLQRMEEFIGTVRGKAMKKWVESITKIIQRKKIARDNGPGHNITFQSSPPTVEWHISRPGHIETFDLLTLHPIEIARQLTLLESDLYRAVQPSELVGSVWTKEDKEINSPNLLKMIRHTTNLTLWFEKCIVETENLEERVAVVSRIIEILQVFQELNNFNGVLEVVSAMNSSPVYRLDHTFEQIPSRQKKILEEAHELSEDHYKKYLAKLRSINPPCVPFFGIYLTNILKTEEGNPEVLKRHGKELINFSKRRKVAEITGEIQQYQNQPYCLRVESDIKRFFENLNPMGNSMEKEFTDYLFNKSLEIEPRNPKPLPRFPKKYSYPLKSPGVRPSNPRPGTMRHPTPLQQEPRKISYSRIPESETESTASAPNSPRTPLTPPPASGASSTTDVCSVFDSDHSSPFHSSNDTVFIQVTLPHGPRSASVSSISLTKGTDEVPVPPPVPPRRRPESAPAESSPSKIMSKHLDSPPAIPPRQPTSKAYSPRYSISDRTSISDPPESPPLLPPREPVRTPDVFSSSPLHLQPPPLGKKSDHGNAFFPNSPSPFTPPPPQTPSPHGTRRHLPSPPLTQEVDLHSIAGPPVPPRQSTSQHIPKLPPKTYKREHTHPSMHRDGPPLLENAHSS
Description: biochemical.
Broadly, the IC50 is the concentration that gives 50% inhibition. The compound `CCN(CC)c1nnc(N[C@H](C)c2cccc(C#N)c2C)c2cn(C3CC3)c(=O)cc12` [Example 40, (R)-3-(1-((6-cyclopropyl-1-(diethylamino)-7-oxo-6,7-dihydropyrido[3,4-d]pyridazin-4-yl)amino)ethyl)-2-methylbenzonitrile] came in with an IC50 of 32.5 nM.

Turning to `C[C@@H](Nc1nnc(N2CCN(C)CC2)c2cc(=O)n(C3CCN(C)CC3)cc12)c1cccc(C(F)F)c1F` [Example 223, (R)-4-((1-(3-(difluoromethyl)-2-fluorophenyl)ethyl)amino)-1-(4-methylpiperazin-1-yl)-6-(1-methylpiperidin-4-yl)pyrido[3,4-d]pyridazin-7(6H)-one], the midpoint of inhibition, the IC50, lay at 5.4 nM.

Consider `C[C@@H](Nc1nnc(N2CC3CN(C)CC3C2)c2cc(=O)n(C3(C)CC3)cc12)c1cccc(C(F)F)c1F` (stereo partly drawn) [Example 206, 4-(((R)-1-(3-(difluoromethyl)-2-fluorophenyl)ethyl)amino)-6-(1-methylcyclopropyl)-1-(5-methylhexahydropyrrolo[3,4-c]pyrrol-2(1H)-yl)pyrido[3,4-d]pyridazin-7(6H)-one], for which the midpoint of inhibition, the IC50, lay at 4.9 nM.

`CNc1nnc(N[C@H](C)c2cccc(C#N)c2C)c2cn(C3(C)CC3)c(=O)cc12` [Example 83, (R)-2-methyl-3-(1-((1-(methylamino)-6-(1-methylcyclopropyl)-7-oxo-6,7-dihydropyrido[3,4-d]pyridazin-4-yl)amino)ethyl)benzonitrile] showed an IC50 of 5.6 nM.

Compound `C[C@@H](Nc1nnc(N2CC(CO)C2)c2cc(=O)n(C3(C)CC3)cc12)c1cccc(C(F)(F)CO)c1` [Example 229, (R)-4-((1-(3-(1,1-difluoro-2-hydroxyethyl)phenyl)ethyl)amino)-1-(3-(hydroxymethyl)azetidin-1-yl)-6-(1-methylcyclopropyl) pyrido[3,4-d]pyridazin-7(6H)-one] had an IC50 of 4.5 nM.

Turning to `C[C@@H](Nc1nnc(N2CC3C(C2)C3(C)C)c2cc(=O)n(C3(C)CC3)cc12)c1cccc(C(F)F)c1F` (stereo partly drawn) [Example 189, 4-(((R)-1-(3-(difluoromethyl)-2-fluorophenyl)ethyl)amino)-1-(6,6-dimethyl-3-azabicyclo[3.1.0]hexan-3-yl)-6-(1-methylcyclopropyl) pyrido[3,4-d]pyridazin-7(6H)-one], half-maximal inhibition (IC50) was put at 4.3 nM.

Take `C[C@@H](Nc1nnc(N2CC3CCCC3C2)c2cc(=O)n(C3(C)CC3)cc12)c1cccc(C(F)F)c1F` (stereo partly drawn) [Example 188, 4-(((R)-1-(3-(difluoromethyl)-2-fluorophenyl)ethyl)amino)-1-(hexahydrocyclopenta[c]pyrrol-2(1H)-yl)-6-(1-methylcyclopropyl) pyrido[3,4-d]pyridazin-7(6H)-one]: the IC50 was 3.1 nM.

`C[C@@H](Nc1nnc(N2CC(F)(F)C2)c2cc(=O)n(C3CC3)cc12)c1cccc(C(F)F)c1F` [Example 20, (R)-6-cyclopropyl-1-(3,3-difluoroazetidin-1-yl)-4-((1-(3-(difluoromethyl)-2-fluorophenyl)ethyl)amino)pyrido[3,4-d]pyridazin-7(6H)-one] came in with an IC50 of 23.8 nM.

Consider `C[C@@H](Nc1nnc(NC(C2CC2)C2CC2)c2cc(=O)n(C3(C)CC3)cc12)c1cccc(C(F)F)c1F` [Example 129, (R)-1-((dicyclopropylmethyl)amino)-4-((1-(3-(difluoromethyl)-2-fluorophenyl)ethyl)amino)-6-(1-methylcyclopropyl) pyrido[3,4-d]pyridazin-7(6H)-one], for which half-maximal inhibition (IC50) required 6.1 nM.

`C[C@@H](Nc1nnc(N2CCC3(CCOCC3)C2)c2cc(=O)n(C3(C)CC3)cc12)c1cccc(C(F)F)c1F` [Example 200, (R)-4-((1-(3-(difluoromethyl)-2-fluorophenyl)ethyl)amino)-6-(1-methylcyclopropyl)-1-(8-oxa-2-azaspiro[4.5]decan-2-yl)pyrido[3,4-d]pyridazin-7(6H)-one]: the IC50 amounted to 4.2 nM.

On to `Cc1cc(N)cc([C@@H](C)Nc2nnc(N3CCN(C(C)C)CC3)c3cc(=O)n(C4(C)CC4)cc23)c1F` [Example 161, (R)-4-((1-(5-amino-2-fluoro-3-methylphenyl)ethyl)amino)-1-(4-isopropylpiperazin-1-yl)-6-(1-methylcyclopropyl) pyrido[3,4-d]pyridazin-7(6H)-one], for which the IC50 was found to be 5.2 nM.

`Cc1c(C#N)cccc1[C@@H](C)Nc1nnc(N2CCC[C@H]2C)c2cc(=O)n(C3(C)CC3)cc12` [Example 85, 2-methyl-3-((R)-1-((6-(1-methylcyclopropyl)-1-((R)-2-methylpyrrolidin-1-yl)-7-oxo-6,7-dihydropyrido[3,4-d]pyridazin-4-yl)amino)ethyl)benzonitrile] yielded an IC50 of 11.7 nM.

In turn, `Cc1cc(N)cc([C@@H](C)Nc2nnc(N3CCN(C)CC3)c3cc(=O)n(C4CC4)cc23)c1F` [Example 141, (R)-4-((1-(5-amino-2-fluoro-3-methylphenyl)ethyl)amino)-6-cyclopropyl-1-(4-methylpiperazin-1-yl)pyrido[3,4-d]pyridazin-7(6H)-one] yielded an IC50 of 7.8 nM.

In the case of `Cc1c(C#N)cccc1[C@@H](C)Nc1nnc(N2CCN(C3CCCC3)CC2)c2cc(=O)n(C3CC3)cc12` [Example 101, (R)-3-(1-((1-(4-cyclopentylpiperazin-1-yl)-6-cyclopropyl-7-oxo-6,7-dihydropyrido[3,4-d]pyridazin-4-yl)amino)ethyl)-2-methylbenzonitrile], 8.9 nM corresponded to half-maximal inhibition (IC50).

For the compound `C[C@@H](Nc1nnc(-n2ccnc2)c2cc(=O)n(C3(C)CC3)cc12)c1cccc(C(F)F)c1F` [Example 34, (R)-4-((1-(3-(difluoromethyl)-2-fluorophenyl)ethyl)amino)-1-(1H-imidazol-1-yl)-6-(1-methylcyclopropyl) pyrido[3,4-d]pyridazin-7(6H)-one], the IC50 is 14.4 nM.

In turn, `Cc1c(C#N)cccc1[C@@H](C)Nc1nnc(N2CCN(C(C)C)CC2)c2cc(=O)n(C3CCN(C)CC3)cc12` [Example 132, (R)-3-(1-((1-(4-isopropylpiperazin-1-yl)-6-(1-methylpiperidin-4-yl)-7-oxo-6,7-dihydropyrido[3,4-d]pyridazin-4-yl)amino)ethyl)-2-methylbenzonitrile] returned an IC50 of 16.6 nM.

`C[C@@H](Nc1nnc(N2CCS(=O)(=O)CC2)c2cc(=O)n(C3(C)CC3)cc12)c1cccc(C(F)F)c1F` [Example 27, (R)-4-((1-(3-(difluoromethyl)-2-fluorophenyl)ethyl)amino)-1-(1,1-dioxidothiomorpholino)-6-(1-methylcyclopropyl) pyrido[3,4-d]pyridazin-7(6H)-one] gave an IC50 of 16.5 nM.

Regarding `C[C@@H](Nc1nnc(N2CC3CC3C2)c2cc(=O)n(C3CC3)cc12)c1cccc(C(F)F)c1F` (stereo partly drawn) [Example 18, 1-(3-azabicyclo[3.1.0]hexan-3-yl)-6-cyclopropyl-4-(((R)-1-(3-(difluoromethyl)-2-fluorophenyl)ethyl)amino)pyrido[3,4-d]pyridazin-7(6H)-one], the midpoint of inhibition, the IC50, lay at 5.7 nM.

Consider `Cc1c([C@@H](C)Nc2nnc(N3CC4CC4C3)c3cc(=O)n(C4CC4)cc23)cccc1C(F)(F)F` (stereo partly drawn) [Example 56, 1-(3-azabicyclo[3.1.0]hexan-3-yl)-6-cyclopropyl-4-(((R)-1-(2-methyl-3-(trifluoromethyl)phenyl)ethyl)amino)pyr ido[3,4-d]pyridazin-7(6H)-one], for which half-maximal inhibition (IC50) was put at 10.6 nM.

As to `C[C@@H](Nc1nnc(N2CCC3(CC2)CNC(=O)C3)c2cc(=O)n(C3(C)CC3)cc12)c1cccc(C(F)F)c1F` [Example 204, (R)-4-((1-(3-(difluoromethyl)-2-fluorophenyl)ethyl)amino)-6-(1-methylcyclopropyl)-1-(3-oxo-2,8-diazaspiro[4.5]decan-8-yl)pyrido[3,4-d]pyridazin-7(6H)-one], half-maximal inhibition (IC50) required 8 nM.

Consider `CCN(CC)c1nnc(N[C@H](C)c2cccc(C#N)c2C)c2cn(C3(C)CC3)c(=O)cc12` [Example 71, (R)-3-(1-((1-(diethylamino)-6-(1-methylcyclopropyl)-7-oxo-6,7-dihydropyrido[3,4-d]pyridazin-4-yl)amino)ethyl)-2-methylbenzonitrile], for which the IC50 amounted to 30.8 nM.

`Cc1cc(N)cc([C@@H](C)Nc2nnc(N3CCN(C4CC4)CC3)c3cc(=O)n(C4(C)CC4)cc23)c1F` [Example 162, (R)-4-((1-(5-amino-2-fluoro-3-methylphenyl)ethyl)amino)-1-(4-cyclopropylpiperazin-1-yl)-6-(1-methylcyclopropyl) pyrido[3,4-d]pyridazin-7(6H)-one] yielded an IC50 of 6.7 nM.
